From article PMC5424110, “Preclinical anti-arthritic study and pharmacokinetic properties of a potent histone deacetylase inhibitor MPT0G009” (Cell Death & Disease, 2014)

How the values were obtained:
HIG-82 synoviocytes = experiment: Cell proliferation assay (SRB), HIG-82 synoviocytes; assay type: cell-based, rabbit; details: 24 or 48 h
[1] = test system: histone H3 acetylation in HIG-82 synoviocytes; experiment: Western blot of acetyl histone H3, HIG-82 cells; assay type: cell-based, rabbit; details: 3 μM MPT0G009 or 60 μM SAHA, 6, 12 or 24 h, starting at 6 h

COc1ccc(S(=O)(=O)N2CCc3cc(C=CC(=O)NO)ccc32)cc1 [MPT0G009, 3-[1-(4-methoxybenzenesulfonyl)-2,3-dihydro-1H-indol-5-yl]-N-hydroxyacrylamide]
anti-proliferative effect (HIG-82 synoviocytes): concentration-dependent anti-proliferative effects | acetylation of histone H3 (Acetyl-H3) [1]: significant hyperacetylation
